# Publication PMC3111459 (Breast cancer research and treatment, 2011)
# Legend:
# [1] = system: OATP1B3; settings: in vitro; cited from earlier work
# [2] = system: OAT2; settings: in vitro; cited from earlier work
# [3] = human, in vivo
# [4] = clinical; settings: human, in vivo
# [5] = clinical; settings: human, in vivo; remark: listed apart in the source
CL [3],T1/2 [3],clearance ([4]; CL) [mL/min],half-life ([4]; T1/2) [h],Tmax [5] [h],SMILES,substrate for liver OATP1B3 [1],substrate for liver OAT2 [2]
18.1 ± 4.35(7) l/h,60.2 ± 31.0(7) h,272,45.1 ± 20,–,CC(=O)O[C@@]12CO[C@@H]1C[C@H](O)[C@@]1(C)C(=O)[C@H](O)C3=C(C)[C@@H](OC(=O)[C@H](O)[C@@H](NC(=O)OC(C)(C)C)c4ccccc4)C[C@@](O)([C@@H](OC(=O)c4ccccc4)[C@H]21)C3(C)C [Docetaxel],substrates for liver OATP1B3,substrate for liver OAT2
–,–,–,–,5,Cc1ccc(NC(=O)c2ccc(CN3CCN(C)CC3)cc2)cc1Nc1nccc(-c2cccnc2)n1 [Imatinib],–,–
